Measured values: patent publication US20260001928A1 (CORTERIA PHARMACEUTICALS, priority 2022, published 2026)
*1 amine or outer side, *2 acyl side, *3 side chain or, on linkers, in order; H or OH if unused. Where a SMILES comes first, the peptide text is derived from it. Side-chain parts run from the residue outwards. [ ]: non-standard residue; d: D form. The star is where a group is joined. C18 diacid = O=C(O)CCCCCCCCCCCCCCCCC(=O)*; γGlu = O=C(O)[C@H](CCC(=O)[*:2])N[*:1]; NMeI = CC[C@H](C)[C@H](NC)C(=O)O; αMeL = CC(C)C[C@](C)(N)C(=O)O; Pentanoyl = CCCCC(=O)*; AEEA = NCCOCCOCC(=O)O; Aib = CC(C)(N)C(=O)O

Assays:
human CRF2a receptor = target: T1, human CRF2a receptor (Homo sapiens, UniProt Q13324); assay: Activity at human CRF2a receptor, cAMP functional assay in TeloHEAC cells; format: cell-based; settings: TeloHEAC cells stably expressing human CRF2a receptor, relative to urocortin 2 (100 nM = 100%)
T1 construct: expressed in transfected cells; host or cells: TeloHEAC cells
T1 sequence (Q13324 1-411): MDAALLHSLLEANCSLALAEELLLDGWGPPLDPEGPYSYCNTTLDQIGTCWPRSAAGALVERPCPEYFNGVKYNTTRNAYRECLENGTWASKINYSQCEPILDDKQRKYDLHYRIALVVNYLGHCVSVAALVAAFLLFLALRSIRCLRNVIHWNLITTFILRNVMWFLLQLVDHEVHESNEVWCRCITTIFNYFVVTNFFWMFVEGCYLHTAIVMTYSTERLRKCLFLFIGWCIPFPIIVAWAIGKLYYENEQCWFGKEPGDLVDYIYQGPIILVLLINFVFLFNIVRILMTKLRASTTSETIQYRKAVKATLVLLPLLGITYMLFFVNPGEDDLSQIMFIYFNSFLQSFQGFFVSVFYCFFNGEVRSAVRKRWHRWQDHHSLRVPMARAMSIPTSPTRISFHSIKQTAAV
Outline: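 TeloHEAC cells stably expressing human CRF2a (10000 cells/well) were treated with 16-point 1:2 compound dilutions in HBSS/20 mM HEPES with IBMX for 30 min at 37° C. cAMP was read by HTRF (665/620 nm ratio). EC50 was the concentration giving 50% activation, with 100 nM urocortin 2 set as 100%.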

CFR1R receptor = target: T2, CFR1R receptor (Homo sapiens, UniProt P34998); assay: Activity at anti-target CFR1R receptor, cAMP assay in CRF1R-overexpression CHO-K1 cells; format: cell-based; settings: 100% = Sauvagine at 100 nM; for EC50: cAMP
T2 construct: host or cells: CHO-K1 (clone 2)
T2 sequence (P34998 24-415): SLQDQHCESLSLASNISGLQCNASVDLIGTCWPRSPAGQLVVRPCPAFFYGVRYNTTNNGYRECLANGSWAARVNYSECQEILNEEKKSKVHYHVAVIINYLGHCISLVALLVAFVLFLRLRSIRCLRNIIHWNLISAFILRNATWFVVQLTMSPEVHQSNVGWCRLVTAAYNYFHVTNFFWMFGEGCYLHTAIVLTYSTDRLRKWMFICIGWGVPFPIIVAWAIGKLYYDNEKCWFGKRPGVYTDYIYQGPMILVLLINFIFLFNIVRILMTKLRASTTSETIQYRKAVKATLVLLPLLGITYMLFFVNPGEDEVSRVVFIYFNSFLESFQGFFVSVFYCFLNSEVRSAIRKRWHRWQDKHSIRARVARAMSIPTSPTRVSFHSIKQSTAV
Outline: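 cAMP readout in CRF1R-overexpressing CHO-K1 cells (clone 2), run as for the TeloHAEC assay at 4000 cells/well final. Cells came from cryopreserved banks. Sauvagine at 100 nM defined 100% activation.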

EC50 (human CRF2a receptor) [nM]	Emax (% I) (CFR1R receptor)	EC50 (CFR1R receptor) [nM]	SMILES
1.62	5	> 250	CC[C@H](C)[C@H](NC)C(=O)N[C@H](C(=O)N[C@@H](CC(C)C)C(=O)N[C@@H](CO)C(=O)N[C@@H](CC(C)C)C(=O)N[C@@H](CC(=O)O)C(=O)N[C@@H](C(=O)N1CCC[C@H]1C(=O)N[C@H](C(=O)N[C@@H](CCCCN)C(=O)N[C@@](C)(CC(C)C)C(=O)N[C@@H](CCCCNC(=O)COCCOCCNC(=O)COCCOCCNC(=O)CC[C@H](NC(=O)CCCCCCCCCCCCCCCCC(=O)O)C(=O)O)C(=O)N[C@@H](CCCCN)C(=O)N[C@H](C(=O)N[C@@H](CC(C)C)C(=O)N[C@@H](CC(C)C)C(=O)N[C@@H](CCC(=O)O)C(=O)N[C@@H](CCC(N)=O)C(=O)N[C@@H](CCC(=O)O)C(=O)N[C@@H](CCCCN)C(=O)N[C@@H](CCC(N)=O)C(=O)N[C@@H](CCCCN)C(=O)N[C@@H](CCCCN)C(=O)N[C@@H](CCC(N)=O)C(=O)N[C@@H](CCCNC(=N)N)C(=O)N[C@@H](CCC(=O)O)C(=O)N[C@@H](CCC(N)=O)C(=O)N[C@@H](C)C(=O)N[C@@H](CCC(=O)O)C(=O)N[C@H](C(=O)N[C@@H](CC(N)=O)C(=O)NC(C)(C)C(=O)N[C@@H](CCC(N)=O)C(=O)N[C@H](C(=O)N[C@@H](CC(C)C)C(=O)N[C@@H](C)C(=O)N[C@@H](CCC(N)=O)C(=O)N[C@H](C(N)=O)C(C)C)[C@@H](C)CC)[C@@H](C)O)[C@@H](C)CC)[C@@H](C)CC)C(C)C)C(C)C [compound 119] (H-[NMeI]VLSLD[dV]PIK[αMeL]K([AEEA-AEEA-γGlu-C18 diacid])KILLEQEKQKKQREQAETN[Aib]QILAQV-NH2)
1.33	3	> 250	CCCCC(=O)N[C@H](C(=O)N[C@@H](CC(C)C)C(=O)N[C@@H](CO)C(=O)N[C@@H](CC(C)C)C(=O)N[C@@H](CC(=O)O)C(=O)N[C@@H](C(=O)N1CCC[C@H]1C(=O)N[C@H](C(=O)N[C@@H](CCCCN)C(=O)N[C@@H](CC(C)C)C(=O)N[C@@H](CCCCNC(=O)COCCOCCNC(=O)COCCOCCNC(=O)CC[C@H](NC(=O)CCCCCCCCCCCCCCCCC(=O)O)C(=O)O)C(=O)N[C@@H](CCCCN)C(=O)N[C@H](C(=O)N[C@@H](CC(C)C)C(=O)N[C@@H](CC(C)C)C(=O)N[C@@H](CCC(=O)O)C(=O)N[C@@H](CCC(N)=O)C(=O)N[C@@H](CCC(=O)O)C(=O)N[C@@H](CCCCN)C(=O)N[C@@H](CCC(N)=O)C(=O)N[C@@H](CCCCN)C(=O)N[C@@H](CCCCN)C(=O)N[C@@H](CCC(N)=O)C(=O)N[C@@H](CCCNC(=N)N)C(=O)N[C@@H](CCC(=O)O)C(=O)N[C@@H](CCC(N)=O)C(=O)N[C@@H](C)C(=O)N[C@@H](CCC(=O)O)C(=O)N[C@H](C(=O)N[C@@H](CC(N)=O)C(=O)NC(C)(C)C(=O)N[C@@H](CCC(N)=O)C(=O)N[C@H](C(=O)N[C@@H](CC(C)C)C(=O)N[C@@H](C)C(=O)N[C@@H](CCC(N)=O)C(=O)N[C@H](C(N)=O)C(C)C)[C@@H](C)CC)[C@@H](C)O)[C@@H](C)CC)[C@@H](C)CC)C(C)C)C(C)C [compound 120] (Pentanoyl-VLSLD[dV]PIKLK([AEEA-AEEA-γGlu-C18 diacid])KILLEQEKQKKQREQAETN[Aib]QILAQV-NH2)
